Laboratory results reported in patent US11999727B2 (Tango Therapeutics, Inc., priority 2020, dated 2024).
Where two headings read alike, the source gives them in different places.

Key:
PRMT5 [1] = biological target: T1, PRMT5 (Homo sapiens, UniProt O14744); assay: PRMT5 biochemical IC50 assay with SAM as cofactor; settings: PRMT5, SAM as cofactor; read-out: SAM IC50
T1 construct: purchased Viva (custom protein)

PRMT5 [2] = biological target: T1, PRMT5; assay: PRMT5 biochemical IC50 assay with no cofactor; settings: PRMT5, no cofactor; read-out: No Cofactor/ rel IC50
Text: Table 1 indicates IC50 values (μM) against PRMT5 for exemplary compounds in the presence of SAM as cofactor, with no cofactor, and with MTA as cofactor, respectively (columns 4-6). […] Ki values can be calculated from the IC50 values as described in the Examples section. As detailed in the Examples section, for the assay performed in the presence of SAM, IC50=Ki×1.5 (Ki=IC50/1.5).

PRMT5 [3] = biological target: T1, PRMT5; assay: PRMT5 biochemical IC50 assay with MTA as cofactor; settings: PRMT5, MTA as cofactor; read-out: MTA IC50
[4] = tested on: HAP1 MTAP-intact cell line; assay: SDMA in-cell western assay, HAP1 MTAP-intact; format: cell-based; settings: HAP1 MTAP-intact, read-out: MTAP HAP1 intact IC50
Procedure, shortened: (§1)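 Readout: in-cell western detection of SDMA. Cells: HAP1 expressing endogenous MTAP and an MTAP-null HAP1 counterpart. Output: IC50.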

[5] = tested on: HAP1 MTAP-deleted cell line; assay: SDMA in-cell western assay, HAP1 MTAP-deleted; format: cell-based; settings: for MTAP intact/deleted ratio: IC50 ratio HAP1 MTAP-intact / HAP1 MTAP-deleted; for IC50: HAP1 MTAP-deleted, read-out: HAP 1 MTAP deleted IC50
Procedure, shortened: as §1

[6] = tested on: HAP1 MTAP-deleted cell line; assay: Viability assay, MTAP-deleted cell line; format: cell-based; settings: MTAP-deleted cell line, read-out: HAP1 MTAP deleted viability
Text: Table 1 additionally indicates IC50 values in a viability assay for the MTAP-deleted cell line (column 10), indicating the effect of treatment with compound on cell survival.

[7] = Homo sapiens, HAP1, SDMA in-cell western
[8] = Homo sapiens, HAP1, viability assay

T1 sequence (O14744 whole entry): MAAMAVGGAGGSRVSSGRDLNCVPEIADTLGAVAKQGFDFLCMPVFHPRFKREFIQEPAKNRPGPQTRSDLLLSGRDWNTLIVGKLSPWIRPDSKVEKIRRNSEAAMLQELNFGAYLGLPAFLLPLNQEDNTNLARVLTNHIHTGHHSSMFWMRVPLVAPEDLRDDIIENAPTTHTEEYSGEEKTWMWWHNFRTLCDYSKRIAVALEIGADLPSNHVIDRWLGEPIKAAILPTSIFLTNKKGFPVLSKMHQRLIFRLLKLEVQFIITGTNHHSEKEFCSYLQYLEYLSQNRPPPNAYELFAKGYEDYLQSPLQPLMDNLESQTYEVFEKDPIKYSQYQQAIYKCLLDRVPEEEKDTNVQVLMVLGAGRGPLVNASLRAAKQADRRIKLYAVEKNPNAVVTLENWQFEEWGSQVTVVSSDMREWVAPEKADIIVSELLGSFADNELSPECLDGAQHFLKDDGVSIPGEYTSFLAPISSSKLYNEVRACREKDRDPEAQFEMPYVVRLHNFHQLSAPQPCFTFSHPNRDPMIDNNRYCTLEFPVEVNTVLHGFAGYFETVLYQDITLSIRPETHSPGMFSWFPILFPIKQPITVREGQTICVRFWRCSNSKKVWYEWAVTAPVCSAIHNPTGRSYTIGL
T1 sequence (Q9BQA1 whole entry partner): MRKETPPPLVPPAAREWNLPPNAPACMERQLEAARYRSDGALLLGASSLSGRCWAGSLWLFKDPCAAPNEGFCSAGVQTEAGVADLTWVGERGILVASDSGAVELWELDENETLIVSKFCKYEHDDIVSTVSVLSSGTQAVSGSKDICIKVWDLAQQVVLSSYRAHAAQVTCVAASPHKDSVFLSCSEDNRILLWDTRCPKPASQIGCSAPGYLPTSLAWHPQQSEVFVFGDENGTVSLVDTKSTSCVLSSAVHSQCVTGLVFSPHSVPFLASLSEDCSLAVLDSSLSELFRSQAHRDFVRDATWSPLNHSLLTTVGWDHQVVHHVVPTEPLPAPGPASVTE

| Compound | IC50 (PRMT5 [1]) [µM] | IC50 (PRMT5 [2]) [µM] | IC50 (PRMT5 [3]) [µM] | IC50 ([4]; SDMA in-cell western) [µM] | MTAP intact/deleted ratio ([5]; SDMA in-cell western) | IC50 ([5]; SDMA in-cell western) [µM] | IC50 ([6]; viability assay) [µM] | IC50 [4, 7] [µM] | IC50 [5, 7] [µM] | IC50 [6, 8] [µM] |
| --- | --- | --- | --- | --- | --- | --- | --- | --- | --- | --- |
| Cc1cc(NC(=O)C(=O)N2CC(C)(C)CCC2c2ccccc2)cnc1N (single isomer, unassigned) [Compound 58, N-(6-amino-5-methylpyridin-3-yl)-2-(5,5-dimethyl-2-phenylpiperidin-1-yl)-2-oxoacetamide] | > 0.5 | > 0.5 | > 0.5 | > 1 | C (an IC50 ratio of less than 3 fold) | > 1 | > 10 |  |  |  |
| Cc1cc(NC(=O)C(=O)N2C[C@H]3CC[C@H](C3)[C@@H]2c2ccccc2)cnc1N (single isomer, unassigned) [Compound 63] | > 0.5 | > 0.5 | > 0.5 |  | C (an IC50 ratio of less than 3 fold) |  |  | > 1 | > 1 | > 10 |
| Cc1cc(NC(=O)C(=O)N2C[C@@H]3CC[C@@H](C3)[C@H]2c2ccccc2)cnc1N (single isomer, unassigned) [Compound 64] | 0.05 to 0.5 | 0.05 to 0.5 | < 0.05 |  | A (an IC50 ratio greater than or equal to 10 fold) |  |  | > 1 | < 0.1 | > 10 |
| Cc1cc(NC(=O)C(=O)N2C[C@H]3CC[C@H](C3)[C@H]2c2ccccc2)cnc1N (single isomer, unassigned) [Compound 65] | 0.05 to 0.5 | 0.05 to 0.5 | 0.05 to 0.5 |  | A (an IC50 ratio greater than or equal to 10 fold) |  |  | > 1 | < 0.1 | 1 to 10 |
| Cc1cncc(NC(=O)C(=O)N2C[C@H](C)CC[C@H]2c2ccc(N)cc2)c1 (single isomer, unassigned) [Compound 67] | 0.05 to 0.5 | 0.05 to 0.5 | 0.05 to 0.5 |  | B (an IC50 ratio greater than or equal to 3 fold but lower than 10 fold) |  |  | > 1 | > 1 | > 10 |
| Cc1cncc(NC(=O)C(=O)N2C[C@H](C)CC[C@H]2c2cccs2)c1 (single isomer, unassigned) [Compound 68] | 0.05 to 0.5 | 0.05 to 0.5 | < 0.05 |  | A (an IC50 ratio greater than or equal to 10 fold) |  |  | > 1 | 0.1 to 1 | > 10 |
| Cc1cc(NC(=O)C(=O)N2CCCC[C@H]2c2cccnc2)cnc1N (single isomer, unassigned) [Compound 69] | 0.05 to 0.5 | 0.05 to 0.5 | < 0.05 |  | A (an IC50 ratio greater than or equal to 10 fold) |  |  | > 1 | 0.1 to 1 | > 10 |
| CC(=O)N1CCC(c2cccc(C3CCCCN3C(=O)C(=O)Nc3cncc(C)c3)c2)CC1 (single isomer, unassigned) [Compound 73] | > 0.5 | > 0.5 | > 0.5 |  | C (an IC50 ratio of less than 3 fold) |  |  | > 1 | > 1 | > 10 |
| CC(=O)N1CCC(c2cccc(C3CCCCN3C(=O)C(=O)Nc3cncc(C)c3)c2)CC1 (single isomer, unassigned) [Compound 78] | > 0.5 | > 0.5 | 0.05 to 0.5 | > 1 | C (an IC50 ratio of less than 3 fold) | > 1 | > 10 |  |  |  |
| NC(=O)c1cncc(NC(=O)C(=O)N2CCCC[C@@H]2c2ccccc2)c1 (single isomer, unassigned) [Compound 85] | 0.05 to 0.5 | 0.05 to 0.5 | < 0.05 |  | A (an IC50 ratio greater than or equal to 10 fold) |  |  | > 1 | 0.1 to 1 | > 10 |
| Cc1cncc(NC(=O)C(=O)N2C[C@@H](C)CC[C@@H]2c2cccc(Cl)c2)c1 (single isomer, unassigned) [Compound 87] | 0.05 to 0.5 | 0.05 to 0.5 | 0.05 to 0.5 |  | C (an IC50 ratio of less than 3 fold) |  |  | > 1 | > 1 | > 10 |
| Cc1cncc(NC(=O)C(=O)N2C[C@H](C)CC[C@H]2c2cccc(Cl)c2)c1 (single isomer, unassigned) [Compound 90] | > 0.5 | > 0.5 | > 0.5 |  | C (an IC50 ratio of less than 3 fold) |  |  | > 1 | > 1 | > 10 |
| Cc1cncc(NC(=O)C(=O)N2C[C@H](C)CCC2c2cccc(F)c2)c1 (single isomer, unassigned) [Compound 93] | 0.05 to 0.5 | > 0.5 | 0.05 to 0.5 |  | C (an IC50 ratio of less than 3 fold) |  |  | > 1 | > 1 | > 10 |
| CC(=O)N1CCC(c2cccc(C3CCCCN3C(=O)C(=O)Nc3cnc(N)c(C)c3)c2)CC1 (single isomer, unassigned) [Compound 94] | 0.05 to 0.5 | 0.05 to 0.5 | < 0.05 | 0.1 to 1 | B (an IC50 ratio greater than or equal to 3 fold but lower than 10 fold) |  | 1 to 10 |  | < 0.1 |  |
| CC(=O)N1CCC(c2cccc(C3CCCCN3C(=O)C(=O)Nc3cnc(N)c(C)c3)c2)CC1 (single isomer, unassigned) [Compound 96] | 0.05 to 0.5 | 0.05 to 0.5 | < 0.05 | > 1 | A (an IC50 ratio greater than or equal to 10 fold) | 0.1 to 1 | > 10 |  |  |  |
| NC(=O)c1cncc(NC(=O)C(=O)N2CCCC[C@H]2c2ccccc2)c1 (single isomer, unassigned) [Compound 97] | > 0.5 | > 0.5 | 0.05 to 0.5 |  | C (an IC50 ratio of less than 3 fold) |  |  | > 1 | > 1 | > 10 |
| C[C@H]1CC[C@@H](c2cccnc2)N(C(=O)C(=O)Nc2cncc(C(N)=O)c2)C1 (single isomer, unassigned) [Compound 104] | 0.05 to 0.5 | > 0.5 | 0.05 to 0.5 |  | B (an IC50 ratio greater than or equal to 3 fold but lower than 10 fold) |  |  | > 1 | > 1 | > 10 |
| C[C@H]1CC[C@H](c2cccnc2)N(C(=O)C(=O)Nc2cncc(C(N)=O)c2)C1 (single isomer, unassigned) [Compound 105] | > 0.5 | > 0.5 | > 0.5 |  | C (an IC50 ratio of less than 3 fold) |  |  | > 1 | > 1 | > 10 |
| C[C@@H]1CC[C@@H](c2cccnc2)N(C(=O)C(=O)Nc2cncc(C(N)=O)c2)C1 (single isomer, unassigned) [Compound 106] | < 0.05 | 0.05 to 0.5 | < 0.05 |  | A (an IC50 ratio greater than or equal to 10 fold) |  |  | > 1 | < 0.1 | 1 to 10 |
| NC(=O)c1cncc(NC(=O)C(=O)N2CCCCC2C2CCCCC2)c1 (single isomer, unassigned) [Compound 108, 5-(2-(2-cyclohexylpiperidin-1-yl)-2-oxoacetamido)nicotinamide] | > 0.5 | > 0.5 | > 0.5 |  | C (an IC50 ratio of less than 3 fold) | > 1 | > 10 | > 1 |  |  |
| NC(=O)c1cncc(NC(=O)C(=O)N2CCCCC2C2CCCCC2)c1 (single isomer, unassigned) [Compound 113, 5-(2-(2-cyclohexylpiperidin-1-yl)-2-oxoacetamido)nicotinamide] | 0.05 to 0.5 | 0.05 to 0.5 | < 0.05 | > 1 | A (an IC50 ratio greater than or equal to 10 fold) | < 0.1 | 1 to 10 |  |  |  |
| Cc1cc(NC(=O)C(=O)N2C[C@H](C)CC[C@H]2c2cccs2)cnc1N (single isomer, unassigned) [Compound 115] | 0.05 to 0.5 | < 0.05 | < 0.05 |  | A (an IC50 ratio greater than or equal to 10 fold) |  |  | 0.1 to 1 | < 0.1 | < 1 |
| C[C@H]1CC[C@H](C2CCCCC2)N(C(=O)C(=O)Nc2cncc(C(N)=O)c2)C1 (single isomer, unassigned) [Compound 117] | > 0.5 | > 0.5 | 0.05 to 0.5 |  | A (an IC50 ratio greater than or equal to 10 fold) |  |  | > 1 | 0.1 to 1 | > 10 |
